Here are results for 23 molecules from patent publication US8030354B2, “Substituted biphenyl GPR40 modulators” (Amgen Inc., priority 2007, dated 2011).

The target in experiment [1] is T1, GPR40 (Homo sapiens, UniProt O14842). Nature of the experiment: Cell-based aequorin assay (CHO cells stably expressing GPR40 and aequorin). The arrangement: expressed in transfected cells; host or cells: CHO cells stably transfected with GPR40 and aequorin. As to conditions: activation of human GPR40, CHO cells, 0.01% HSA. An outline of the steps:
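CHO cells stably co-expressing GPR40 and aequorin, loaded with coelenterazine (1 ug/mL, 2 h, room temperature) in H/HBSS with 20 mM Hepes and 0.01% fatty acid-free HSA. Serially diluted compounds added; luminescence recorded over 20 s. EC50 from dose-response of maximum relative light units.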

Experiment [2] concerns the target T1, GPR40. Nature of the experiment: Inositol phosphate accumulation assay (A9_GPR40 cells). Also noted: expressed in transfected cells; host or cells: CHO cells stably transfected with GPR40 and aequorin. The class given is cell-based. The following applies: inositol phosphate assay, A9_GPR40 cells, 1 hour; read-out: IP3 EC50. An outline of the steps: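 [^3H] inositol phosphate accumulation was measured by SPA after 1 h compound exposure at 37° C in HBSS/10 mM LiCl containing HSA, ending with a 20 mM formic acid quench. The GPR40-transfected A9 cells had first been labelled overnight (16 h) with 1 μCi/mL ^3H-inositol.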

T1 sequence (O14842 whole entry): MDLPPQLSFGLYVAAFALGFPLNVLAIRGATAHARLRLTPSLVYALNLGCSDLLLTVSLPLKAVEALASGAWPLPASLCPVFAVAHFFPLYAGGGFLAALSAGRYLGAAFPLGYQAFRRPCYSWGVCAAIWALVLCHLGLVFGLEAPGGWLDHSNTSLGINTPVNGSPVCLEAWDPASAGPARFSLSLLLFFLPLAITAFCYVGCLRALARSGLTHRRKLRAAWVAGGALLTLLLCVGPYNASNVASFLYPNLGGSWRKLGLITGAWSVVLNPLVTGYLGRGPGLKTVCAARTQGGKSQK

`COc1ccc(F)c(-c2ccc(COc3cccc([C@@H](CC(=O)O)C4CC4)c3)cc2[C@@H]2CCCCC2(C)C)c1` (single isomer, unassigned) [Example 66.22]: the concentration giving a half-maximal response (EC50) was 0.01 to 0.1 µM on GPR40 [1] and under 0.01 µM on GPR40 [2].
The corresponding values for `COc1ccc(F)c(-c2ccc(COc3cccc([C@@H](CC(=O)O)C4CC4)c3)cc2[C@H](OC)C(C)(C)C)c1` (single isomer, unassigned) [Example 66.24] are 1 to 10 µM and 0.1 to 1 µM.
The corresponding values for `CCOc1ccc(F)c(-c2ccc(COc3cccc([C@@H](CC(=O)O)C4CC4)c3)cc2[C@@H]2CCCC2(C)C)c1` (single isomer, unassigned) [Example 66.25] are 1 to 10 µM and 1 to 10 µM.
The corresponding values for `CCOc1ccc(F)c(-c2ccc(COc3cccc(C(CC(=O)O)C4CC4)c3)cc2C2CCCC2(C)C)c1` (single isomer, unassigned) [Example 66.26] are 0.1 to 1 µM and 0.01 to 0.1 µM.
In the case of `COc1ccc(F)c(-c2ccc(COc3cccc([C@@H](CC(=O)O)C4CC4)c3)cc2[C@@H](OCc2ccccc2)C(C)(C)C)c1` (single isomer, unassigned) [Example 66.28], the results for the concentration giving a half-maximal response (EC50) on GPR40 [1] and on GPR40 [2] were 0.1 to 1 µM and under 0.01 µM, respectively.
Consider `COc1ccc(F)c(-c2ccc(COc3cccc([C@@H](CC(=O)O)C4CC4)c3)cc2[C@H](F)C(C)(C)C)c1` (single isomer, unassigned) [Example 66.31], for which the 50% effective concentration (EC50) at GPR40 [1] lay within 0.1 to 1 µM; at GPR40 [2], 0.01 to 0.1 µM.
Consider `COC(c1cc(COc2cccc(C(CC(=O)O)C3CC3)c2)ccc1-c1ccccc1F)C(C)(C)C` (single isomer, unassigned) [Example 66.33], for which the results for the EC50 at GPR40 [1] and at GPR40 [2] were 0.1 to 1 µM and 0.01 to 0.1 µM, respectively.
Take `COc1cc(-c2ccc(COc3cccc(C(CC(=O)O)C4CC4)c3)cc2C2=CCCCC2(C)C)c(F)cn1` (single isomer, unassigned) [Example 66.34, (3S)-3-Cyclopropyl-3-(3-(((3-(6,6-dimethyl-1-cyclohexen-1-yl)-4-(5-fluoro-2-(methyloxy)-4-pyridinyl)phenyl)methyl)oxy)phenyl)propanoic acid or (3S)-3-Cyclopropyl-3-(3-(((3-(6,6-dimethyl-1-cyclohexen-1-yl)-4-(5-fluoro-2-(methyloxy)-4-pyridinyl)phenyl)methyl)oxy)phenyl)propanoic acid]: the EC50 on GPR40 [1] and at GPR40 [2] was 0.01 to 0.1 µM throughout.
As for `COc1cc(-c2ccc(COc3cccc(C(CC(=O)O)C4CC4)c3)cc2C2CCCC2(C)C)c(F)cn1` (single isomer, unassigned) [Example 66.36], the EC50 on GPR40 [1] is 0.01 to 0.1 µM; on GPR40 [2], under 0.01 µM.
The corresponding values for `COc1cc(-c2ccc(COc3cccc([C@@H](CC(=O)O)C4CC4)c3)cc2[C@@H]2CCCC2(C)C)c(F)cn1` (single isomer, unassigned) [Example 66.37] are 0.1 to 1 µM and 0.01 to 0.1 µM.
The corresponding values for `COc1ccc(F)c(-c2ccc(COc3cccc([C@@H](CC(=O)O)C4CC4)c3)cc2C2N(C)CCCC2(C)C)c1` (single isomer, unassigned) [Example 66.40, (S)-3-Cyclopropyl-3-{3-[2′-fluoro-5′-methoxy-2-(1,3,3-trimethyl-piperidin-2-yl)-biphenyl-4-ylmethoxy]-phenyl}-propionic acid or (R)-3-cyclopropyl-3-{3-[2′-fluoro-5′-methoxy-2-(1,3,3-trimethyl-piperidin-2-yl)-biphenyl-4-ylmethoxy]-phenyl}-propionic acid] are 0.1 to 1 µM and 0.01 to 0.1 µM.
The corresponding values for `COCC(C)(C)C(OC)c1cc(COc2cccc(C(CC(=O)O)C3CC3)c2)ccc1-c1cc(OC)ccc1F` (single isomer, unassigned) [Example 66.42, (S)-3-Cyclopropyl-3-{3-[2-(1,3-dimethoxy-2,2-dimethyl-propyl)-2′-fluoro-5′-methoxy-biphenyl-4-ylmethoxy]-phenyl}-propionic acid or (S)-3-Cyclopropyl-3-{3-[2-(1,3-dimethoxy-2,2-dimethyl-propyl)-2′-fluoro-5′-methoxy-biphenyl-4-ylmethoxy]-phenyl}-propionic acid] are 0.1 to 1 µM and 0.01 to 0.1 µM.
In the case of `COc1ccc(F)c(-c2cc(F)c(COc3cccc([C@@H](CC(=O)O)C4CC4)c3)cc2C2=CCCC2(C)C)c1` (single isomer, unassigned) [Example 66.43, (3S)-3-Cyclopropyl-3-(3-(((2-(5,5-dimethyl-1-cyclopenten-1-yl)-2′,5-difluoro-5′-(methyloxy)-1,1′-biphenyl-4-yl)methyl)oxy)phenyl)propanoic acid or (3R)-3-cyclopropyl-3-(3-(((2-(5,5-dimethyl-1-cyclopenten-1-yl)-2′,5-difluoro-5′-(methyloxy)-1,1′-biphenyl-4-yl)methyl)oxy)phenyl)propanoic acid], the results for the concentration for a half-maximal effect (EC50) on GPR40 [1] and at GPR40 [2] were 0.1 to 1 µM and under 0.01 µM, respectively.
Regarding `COc1ccc(F)c(-c2cc(F)c(COc3cccc([C@@H](CC(=O)O)C4CC4)c3)cc2[C@H]2CCCC2(C)C)c1` (single isomer, unassigned) [Example 66.44], the EC50 was 0.01 to 0.1 µM on GPR40 [1] and under 0.01 µM at GPR40 [2].
The corresponding values for `COc1ccc(F)c(-c2c(F)cc(COc3cccc([C@@H](CC(=O)O)C4CC4)c3)cc2C2=CCCC2(C)C)c1` (single isomer, unassigned) [Example 66.49, (3S)-3-Cyclopropyl-3-(3-(((2-(5,5-dimethyl-1-cyclopenten-1-yl)-2′,6-difluoro-5′-(methyloxy)-1,1′-biphenyl-4-yl)methyl)oxy)phenyl)propanoic acid or (3R)-3-cyclopropyl-3-(3-(((2-(5,5-dimethyl-1-cyclopenten-1-yl)-2′,6-difluoro-5′-(methyloxy)-1,1′-biphenyl-4-yl)methyl)oxy)phenyl)propanoic acid] are 0.1 to 1 µM and 0.01 to 0.1 µM.
The corresponding values for `CC1(C)CCC=C1c1cc(COc2cccc([C@@H](CC(=O)O)C3CC3)c2)ccc1-c1cc(C(F)F)ccc1F` (single isomer, unassigned) [Example 66.50, (3S)-3-Cyclopropyl-3-(3-(((5′-(difluoromethyl)-2-(5,5-dimethyl-1-cyclopenten-1-yl)-2′-fluoro-1,1′-biphenyl-4-yl)methyl)oxy)phenyl)propanoic acid or (3R)-3-cyclopropyl-3-(3-(((5′-(difluoromethyl)-2-(5,5-dimethyl-1-cyclopenten-1-yl)-2′-fluoro-1,1′-biphenyl-4-yl)methyl)oxy)phenyl)propanoic acid] are 0.1 to 1 µM and 0.1 to 1 µM.
The corresponding values for `CC1(C)CCC[C@@H]1c1cc(COc2cccc([C@@H](CC(=O)O)C3CC3)c2)ccc1-c1cc(C(F)F)ccc1F` (single isomer, unassigned) [Example 66.51] are 0.1 to 1 µM and 0.01 to 0.1 µM.
Turning to `COc1ccc(F)c(-c2ccc(COc3cccc([C@@H](CC(=O)O)C4CC4)c3)cc2[C@H]2OCCCC2(C)C)c1` (single isomer, unassigned) [Example 66.54], the figures for the concentration giving a half-maximal response (EC50) on GPR40 [1] and at GPR40 [2] were 0.1 to 1 µM and 0.01 to 0.1 µM, respectively.
The corresponding values for `COc1ccc(F)c(-c2ccc(COc3cccc([C@@H](CC(=O)O)C4CC4)c3)cc2[C@H]2CCC[C@@H]2C)c1` (single isomer, unassigned) [Example 66.56] are 0.1 to 1 µM and 0.01 to 0.1 µM.
Consider `CCC(C)(C)[C@H](OC)c1cc(COc2cccc([C@@H](CC(=O)O)C3CC3)c2)ccc1-c1cc(OC)ccc1F` (single isomer, unassigned) [Example 66.62], for which the EC50 on GPR40 [1] was 0.01 to 0.1 µM; on GPR40 [2], under 0.01 µM.
The corresponding values for `COc1ccc(F)c(-c2ccc(COc3cccc([C@@H](CC(=O)O)C4CC4)c3)cc2COC(C)(C)C)c1` (single isomer, unassigned) [Example 66.63, (3S)-3-Cyclopropyl-3-(3-(((2-(((1,1-dimethylethyl)oxy)methyl)-2′-fluoro-5′-(methyloxy)-1,1′-biphenyl-4-yl)methyl)oxy)phenyl)propanoic acid or (3R)-3-cyclopropyl-3-(3-(((2-(((1,1-dimethylethyl)oxy)methyl)-2′-fluoro-5′-(methyloxy)-1,1′-biphenyl-4-yl)methyl)oxy)phenyl)propanoic acid] are 1 to 10 µM and 1 to 10 µM.
The corresponding values for `COc1cc(-c2ccc(COc3cccc(C(CC(=O)O)C4CC4)c3)cc2C2=CCCC2(C)C)ccn1` (single isomer, unassigned) [Example 66.66, (3S)-3-(3-(3-(5,5-Dimethylcyclopent-1-enyl)-4-(2-methoxypyridin-4-yl)benzyloxy)phenyl)-3-cyclopropylpropanoic acid or (3R)-3-(3-(3-(5,5-dimethylcyclopent-1-enyl)-4-(2-methoxypyridin-4-yl)benzyloxy)phenyl)-3-cyclopropylpropanoic acid] are 0.1 to 1 µM and 0.01 to 0.1 µM.
Regarding `C=CC1(c2cc(COc3cccc([C@@H](CC(=O)O)C4CC4)c3)ccc2-c2cc(OC)ncc2F)CCCC1` (single isomer, unassigned) [Example 66.67, (3S)-3-(3-(4-(5-Fluoro-2-methoxypyridin-4-yl)-3-(1-vinylcyclopentyl)benzyloxy)phenyl)-3-cyclopropylpropanoic acid or (3R)-3-(3-(4-(5-fluoro-2-methoxypyridin-4-yl)-3-(1-vinylcyclopentyl)benzyloxy)phenyl)-3-cyclopropylpropanoic acid], the EC50 at GPR40 [1] lay in the range of 0.1 to 1 µM; on GPR40 [2] it was 0.01 to 0.1 µM.
